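Cultured in 96-well plates, cells were exposed to test compound for 48 hours across five concentrations. GI50 = concentration required for 50% inhibition of growth. The concentration for full growth arrest is given as TGI.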
Key:
Test in all cases: inhibition of tumour cell growth, NCI panel, 48 h
[1] = system: M19-MEL melanoma
[2] = system: DLD-1 colon
[3] = system: LXFL 529 NSCLC
[4] = system: HS 578T breast
[5] = system: MDA-MB-435
[6] = system: SNB-78 CNS
[7] = system: SK-OV-3 ovarian
[8] = system: DMS 273 small cell lung
[9] = system: MCF7 breast

Structure (SMILES)	TGI [1] [µM]	TGI [2] [µM]	TGI [3] [µM]	TGI [4] [µM]	TGI [5] [µM]	TGI [6] [µM]	TGI [7] [µM]	TGI [8] [µM]	TGI [9] [µM]	GI50 [1] [µM]	GI50 [2] [µM]	GI50 [3] [µM]	GI50 [6] [µM]	GI50 [7] [µM]	GI50 [8] [µM]
Cc1cc(Cl)cc2c1NC(=O)C2(O)CC(=O)c1ccco1 (stereo not drawn)	30.9	> 100	> 100	> 100	14.2	> 100	> 100	> 100							
Nc1cccc(S(=O)(=O)NCC(=O)O)c1	> 100	> 100	> 100			> 100	> 100	> 100							
COC1(OC)CC2OC1C1N=NN(C(=O)OC(C)(C)C)C21 (stereo not drawn)	> 100	> 100	> 100			> 100	> 100	> 100							
CC(SC(=S)N1CCOCC1)c1cc2oc(=O)n(C)c2cc1Cl (stereo not drawn)	> 100	> 100	> 100			> 100	> 100	> 100							
COc1ccc(N2C(=O)/C(=C/c3ccc(N(CCC#N)CCC#N)cc3C)N=C2c2cc([N+](=O)[O-])ccc2Cl)cc1	> 100	> 100	> 100	5.96	6.1	> 100	> 63.1	> 27	> 46.4						
CCC[CH2][Sn]1([CH2]CCC)[O]C(=O)CN=Cc2c(ccc3ccccc23)[O]1	1.23	> 100	0.249			1.4	2.31	2.22		0.299	0.811	0.107	0.282	1.11	1
COc1ccc(NC(=O)CC(=O)N/N=C/c2ccc(N(CCC#N)S(C)(=O)=O)cc2)cc1	> 100	> 100	> 100			> 100	> 100	> 100							
CC(C)(C)c1cc(CCC(=O)Nc2ccc(Cl)cc2)nc(NC#N)n1	> 100	> 100	> 100			> 100	> 100	> 100							
C/C(O)=C(\N=O)C(=O)Nc1ccc(Cl)cc1Cl	> 100	> 100	> 100			> 100	> 100	> 100							
NC(=O)COC(=O)c1c(Cl)nc2sccn12	> 100	> 100	> 100			> 100	> 100	> 100							
O=C(N/C(=C\c1cccc([N+](=O)[O-])c1)c1nc2ccc([N+](=O)[O-])cc2[nH]1)c1ccccc1	> 100	> 100	75.1			> 100	> 100	> 100							
O=C(CCN(C(=O)O)S(=O)(=O)c1ccc(NC(=O)c2ccccc2)cc1)NC1CCCCC1	> 100	> 100	> 100			> 100	> 100	> 100							
CCOCC(=O)N[C@H]1CCc2cc(OC)c(OC)c(OC)c2-c2ccc(OC)c(=O)cc21	> 100	> 100	> 100	> 100	< 0.0196	> 100	15	> 100	> 100						
Nc1c(-c2ccc(Cl)cc2)[n+]([O-])c2ccccc2[n+]1[O-]	> 100	> 100	> 100			> 100	> 100	> 100							

Reference: PubChem BioAssay (NCI)
